Data as given in ChEMBL document CHEMBL1649223, “Efficacy of albaconazole against Candida albicans in a vaginitis model” (2009).
Converted amounts (≈) assume the structure as drawn.

Experiments:
Type in all cases: functional
Candida albicans [1] = assay: Antifungal activity against Candida albicans isolate 03-2718 after 48 hrs; details: isolate 03-2718, 48 h
Candida albicans [2] = assay: Antifungal activity against Candida albicans isolate 03-2718 infected BALB/c mouse vaginitis model assessed as reduction in fungal load in vagina at 40 mg/kg, administered through oral gavage once daily for 5 days measured on day 1 post inoculation
Candida albicans [3] = assay: Antifungal activity against Candida albicans isolate 03-2718 infected BALB/c mouse vaginitis model assessed as reduction in fungal load in vagina at 5 mg/kg, administered through oral gavage once daily for 5 days measured on day 6 post inoculation
Candida albicans [4] = assay: Antifungal activity against Candida albicans isolate 03-2718 infected BALB/c mouse vaginitis model assessed as reduction in fungal load in vagina at 20 mg/kg, administered through oral gavage twice daily for 5 days measured on day 6 post inoculation
Candida albicans [5] = assay: Antifungal activity against Candida albicans isolate 03-2718 infected BALB/c mouse vaginitis model assessed as reduction in fungal load in vagina at 20 mg/kg, administered through oral gavage once daily for 5 days measured on day 6 post inoculation
Candida albicans [6] = assay: Antifungal activity against Candida albicans isolate 03-2718 infected BALB/c mouse vaginitis model assessed as reduction in fungal load in vagina at 40 mg/kg, administered through oral gavage twice daily for 5 days measured on day 6 post inoculation
Candida albicans [7] = assay: Antifungal activity against Candida albicans isolate 03-2718 infected BALB/c mouse vaginitis model assessed as reduction in fungal load in vagina at 10 mg/kg, administered through oral gavage twice daily for 5 days measured on day 1 post inoculation
Candida albicans [8] = assay: Antifungal activity against Candida albicans isolate 03-2718 infected BALB/c mouse vaginitis model assessed as reduction in fungal load in vagina at 40 mg/kg, administered through oral gavage once daily for 5 days measured on day 6 post inoculation
Candida albicans [9] = assay: Antifungal activity against Candida albicans isolate 03-2718 infected BALB/c mouse vaginitis model assessed as reduction in fungal load in vagina at 40 mg/kg, administered through oral gavage twice daily for 5 days measured on day 1 post inoculation
Candida albicans [10] = assay: Antifungal activity against Candida albicans isolate 03-2718 infected BALB/c mouse vaginitis model assessed as reduction in fungal load in vagina at 20 mg/kg, administered through oral gavage twice daily for 5 days measured on day 1 post inoculation
Candida albicans [11] = assay: Antifungal activity against Candida albicans isolate 03-2718 infected BALB/c mouse vaginitis model assessed as reduction in fungal load in vagina at 10 mg/kg, administered through oral gavage once daily for 5 days measured on day 6 post inoculation
Candida albicans [12] = assay: Antifungal activity against Candida albicans isolate 03-2718 infected BALB/c mouse vaginitis model assessed as reduction in fungal load in vagina at 5 mg/kg, administered through oral gavage twice daily for 5 days measured on day 1 post inoculation
Candida albicans [13] = assay: Antifungal activity against Candida albicans isolate 03-2718 infected BALB/c mouse vaginitis model assessed as reduction in fungal load in vagina at 10 mg/kg, administered through oral gavage once daily for 5 days measured on day 1 post inoculation
Candida albicans [14] = assay: Antifungal activity against Candida albicans isolate 03-2718 infected BALB/c mouse vaginitis model assessed as reduction in fungal load in vagina at 10 mg/kg, administered through oral gavage twice daily for 5 days measured on day 6 post inoculation
Candida albicans [15] = assay: Antifungal activity against Candida albicans isolate 03-2718 infected BALB/c mouse vaginitis model assessed as reduction in fungal load in vagina at 20 mg/kg, administered through oral gavage once daily for 5 days measured on day 1 post inoculation
Candida albicans [16] = assay: Antifungal activity against Candida albicans isolate 03-2718 infected BALB/c mouse vaginitis model assessed as reduction in fungal load in vagina at 5 mg/kg, administered through oral gavage twice daily for 5 days measured on day 6 post inoculation
Candida albicans [17] = assay: Antifungal activity against Candida albicans isolate 03-2718 infected BALB/c mouse vaginitis model assessed as reduction in fungal load in vagina at 5 mg/kg, administered through oral gavage once daily for 5 days measured on day 1 post inoculation

C[C@@H](n1cnc2cc(Cl)ccc2c1=O)[C@](O)(Cn1cncn1)c1ccc(F)cc1F [ALBACONAZOLE]
MIC (Candida albicans [1]): 0.5 µg/mL (≈ 1.16 µM) | log10cfu (Candida albicans [2]): 5.62 | log10cfu (Candida albicans [3]): 4.99 | log10cfu (Candida albicans [4]): 3.34 | log10cfu (Candida albicans [5]): 3.81 | log10cfu (Candida albicans [6]): 2.24 | log10cfu (Candida albicans [7]): 5.43 | log10cfu (Candida albicans [8]): 3.13 | log10cfu (Candida albicans [9]): 5.79 | log10cfu (Candida albicans [10]): 5.48 | log10cfu (Candida albicans [11]): 4.33 | log10cfu (Candida albicans [12]): 5.46 | log10cfu (Candida albicans [13]): 5.07 | log10cfu (Candida albicans [14]): 3.83 | log10cfu (Candida albicans [15]): 5.13 | log10cfu (Candida albicans [16]): 4.82 | log10cfu (Candida albicans [17]): 5.06

OC(Cn1cncn1)(Cn1cncn1)c1ccc(F)cc1F [FLUCONAZOLE]
log10cfu (Candida albicans [4]): 3.74 | log10cfu (Candida albicans [5]): 4.51 | log10cfu (Candida albicans [10]): 5.9 | log10cfu (Candida albicans [15]): 5.51
